In one data set the target is T1, CXCR2 (Mus musculus, UniProt P35343).
T1 construct: from tissue; host or cells: whole animal: wild-type C57BL/6J mice (receptor on the animals' own neutrophils)
T1 sequence (P35343 1-359): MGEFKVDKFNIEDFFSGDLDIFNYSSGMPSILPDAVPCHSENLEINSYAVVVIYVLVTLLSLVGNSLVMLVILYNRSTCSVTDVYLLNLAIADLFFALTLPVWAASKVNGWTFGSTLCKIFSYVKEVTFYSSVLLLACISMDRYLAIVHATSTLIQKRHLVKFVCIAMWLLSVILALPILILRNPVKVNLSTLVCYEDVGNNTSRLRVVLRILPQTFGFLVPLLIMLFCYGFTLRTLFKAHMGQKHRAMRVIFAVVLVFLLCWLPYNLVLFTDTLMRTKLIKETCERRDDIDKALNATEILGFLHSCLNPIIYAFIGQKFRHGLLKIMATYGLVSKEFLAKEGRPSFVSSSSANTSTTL
As to the kind of experiment: CXCR2 inhibitor SB265610 in Dox-treated wild-type mice. The data set is classed as in vivo. To be noted: 2 mg/kg/day i.p. The procedure:
(§1) Doxorubicin administration.
SB265610 (CXCR2 inhibitor) administration. SB265610 (1-(2-Bromophenyl)-3-(4-cyano-1H-benzo[d] [1,2,3]triazol-7-yl)urea, N-(2-Bromophenyl)-N′-(7-cyano-1H-benzotriazol-4-yl)urea; Catalog No. SML0421; Sigma-Aldrich, St. Louis, Missouri, United States of America) was used to inhibit neutrophil infiltration into tissues. Mice were injected intraperitoneally with 2 mg/kg of SB265610, once a day, over a time course that starts 1 day before the start of doxorubicin administration until the end of the study. The solution of SB265610 was prepared in sterile dimethyl sulfoxide (DMSO) to a concentration of 10 mg/ml. The aliquoted mixture was stored at −20° C. and thawed before use. The solution was mixed with corn oil (Sigma Catalog No. C8267) to minimize the toxic effect of DMSO just before injection. Injections were performed using a sterile syringe and needle (29G). The expiration date of the mixture coincided with the expiration date of the SB265610.

The test system of the next data set is Ccr2-deficient mice. As to the kind of experiment: Dox-induced cardiac toxicity in Ccr2-deficient mice. The class given is in vivo. As to conditions: Ccr2-deficient relative to wild-type mice, 15 μg/g split into 3 injections, 4 weeks.
Excerpt: Mice. […] All strains are C57BL/6J background.
as §1

For another data set, the system named is C57BL6/J wild type mice. The data set can be described thus: Single bolus of Dox in wild-type mice; cardiac parameters, blood counts, cardiac-resident leukocytes. The class given is in vivo. The procedure: as §1
(§2) Hematopoietic cell parameter measurements. […] Hematopoietic parameters were analyzed using an Element HT5 Veterinary Hematology Analyzer (Heska, Loveland, Colorado, United States of America).

Data set [1] has as its system mice transplanted with wild-type or Trp53 mutant cells.
Experimental: Doxorubicin administration. Pattern 1: adoptive BMT mice were injected with doxorubicin 6 weeks after BMT using a model of therapy-related clonal hematopoiesis (Wang et al., 2020) involving 3 rounds of 2 mg/kg i.p. injection, with 3 weeks between each round. Pattern 2: competitive BMT mice, Trp53-Myelo-KO mice, Ccr2^gfp/gfp mice, and mice in neutrophil depletion and neutrophil recruitment inhibition studies were injected with doxorubicin with a dose of 15 μg/g (body weight) split into 3 injections at indicated time points. Pattern 3: wild-type mice were injected with a single dose of doxorubicin (15 μg/g) at indicated time points.
Echocardiography. Cardiac function was assessed before and after Dox administration at indicated time points using a Vevo 2100 ultrasound system equipped with MS400D probe (FUJIFILM VisualSonics Inc., Toronto, Ontario, Canada). Echocardiography was performed as described in Wang et al., 2019. Briefly, mice were anesthetized with isoflurane at a concentration of 5% (induction phase) and 1-1.5% (maintenance phase). Each animal was placed on the heating table in a supine position with the extremities taped to the table through four electrocardiography leads. Chest fur was removed with a chemical hair remover, and ultrasound gel was applied to the thorax surface to improve the visibility of the cardiac chambers. Left ventricular diameter at end-diastole (LVDd, mm), left ventricular diameter at end-systole (LVDs, mm), posterior wall thickness in diastole (PWTd, mm), and fractional shortening (FS, %) were measured from M-mode images obtained by short-axis view visualizing both mid papillary muscles. Measurements and analysis were performed by two individuals who were blinded to the identity of the experimental groups of mice using a Vevo Lab software (FUJIFILM VisualSonics Inc.).
Data set [2] has as its system myeloid-specific Trp53-deficient mice (Lyz2^Cre/+Trp53^fl/fl). The data set can be described thus: Dox-induced cardiotoxicity in myeloid-specific Trp53-deficient mice. To be noted: Lyz2^Cre/+Trp53^fl/fl vs control mice treated with Dox.
Excerpt: (§3) Mice. Wild-type mice (Cd45.2), Trp53-insufficient mice, Trp53^R27OH mice, Trp53-floxed mice, Lyz2-Cre mice, Pep Boy mice (Cd45.1), and Ccr2^gfp/gfp mice were obtained from The Jackson Laboratory (stock 000664, 002103, 008182, 008462, 004781, 002014, and 027619, respectively). All strains are C57BL/6J background. Mice with myeloid-restricted Trp53 ablation were generated by crossing Trp53-floxed mice (Trp53^fl/fl) with Lyz2-Cre mice. Male mice were used for both in vivo and in vitro experiments unless otherwise noted. Mice were housed in a specific pathogen-free animal facility and given food and water ad libitum on 12-hour dark/light schedule.
(§4) Doxorubicin administration. Pattern 1: adoptive BMT mice were injected with doxorubicin 6 weeks after BMT using a model of therapy-related clonal hematopoiesis (Wang et al., 2020) involving 3 rounds of 2 mg/kg i.p. injection, with 3 weeks between each round. Pattern 2: competitive BMT mice, Trp53-Myelo-KO mice, Ccr2^gfp/gfp mice, and mice in neutrophil depletion and neutrophil recruitment inhibition studies were injected with doxorubicin with a dose of 15 μg/g (body weight) split into 3 injections at indicated time points. […]
(§5) Quantitative RT-PCR. […] Gene expression was calculated relative to 36b4 and normalized to controls. Data were calculated by AACt approach.
The subject of data set [3] is lethally irradiated mice transplanted with Trp53-heterozygous cells. As to the kind of experiment: Dox cardiotoxicity in myeloablative (competitive) BMT mice, 30% Trp53^+/− or wild-type cells. Here is the method:
as §1
Quantitative RT-PCR. Mouse total RNA was isolated using QIAzol reagent (Catalog No. 79306; Qiagen, Inc., Germantown, Maryland, United States of America), and was purified on the QIAcube. 1 μg RNA was reverse transcribed with a High-capacity cDNA Reverse Transcription Kit (Catalog No. 4368814; Thermo Fisher Scientific). qRT-PCR was performed with POWERUP™ SYBR™ Green reagent (Catalog No. 4367659; Thermo Fisher Scientific) in a QUANTSTUDIO™ 6 Flex PCR system (Thermo Fisher Scientific). Gene expression was calculated relative to 36b4 and normalized to controls. Data were calculated by AACt approach.

Data set [4] deals with Trp53 mutant hematopoietic cells. The data set can be described thus: Adoptive bone marrow transplantation model of Trp53 clonal hematopoiesis with cycles of Dox; flow cytometry chimerism and blood counts. The data set is classed as in vivo, mice. The procedure: Non-myeloablative bone marrow transplantation.
as §1, §2

In data set [5] the test system is myeloid-specific Trp53-deficient mice (Lyz2^Cre/+Trp53^fl/fl). As to conditions: mouse, in vivo.
Excerpt: as §3, §4, §5
[6] abbreviates: single bolus of Dox 15 μg/g i.p., up to 14 days.
Where [7] appears, read: adoptive BMT mice treated with Dox.
Setting [8] is: mice transplanted with wild-type cells, Dox cycles.
The mark [9] stands for this setting: mice with Trp53^R27OH mutant blood cells vs wild-type cells, Dox regimen.
Setting [10] is: Trp53 heterozygous mutant vs wild-type bone marrow, 7 days after single Dox 15 μg/g.
Where [11] appears, read: adoptive BMT mice, Dox in cycles vs saline.

This is an account of results in patent US20240148765A1, “COMPOSITIONS AND METHODS FOR TREATING AND/OR PREVENTING THERAPY-RELATED CARDIOMYOPATHY ASSOCIATED WITH NEUTROPHIL INFILTRATION” (University of Virginia Patent Foundation, priority 2021, published 2024).

Where two headings read alike, the source gives them in different places.

Turning to `N#Cc1ccc(NC(=O)Nc2ccccc2Br)c2[nH]nnc12` [SB265610, 1-(2-Bromophenyl)-3-(4-cyano-1H-benzo[d] [1,2,3]triazol-7-yl)urea, N-(2-Bromophenyl)-N′-(7-cyano-1H-benzotriazol-4-yl)urea], the “neutrophil influx to the hearts” value on CXCR2 is “reduced”. Besides, on CXCR2 (14-day timepoint), the “effects of Dox on cardiac wall thinning and function” value is recorded as “reversed”.
On to `COc1cccc2c1C(=O)c1c(O)c3c(c(O)c1C2=O)C[C@@](O)(C(=O)CO)C[C@@H]3O[C@H]1C[C@H](N)[C@H](O)[C@H](C)O1` [Dox, doxorubicin], for which the “cardiac dysfunction after Dox” value in the data set on Ccr2-deficient mice was “comparable”. In addition, the “cardiac wall dimension and function” value with C57BL6/J wild type mice (single bolus of Dox 15 μg/g i.p., 14 days) is “reductions”. In the data set on C57BL6/J wild type mice (setting [6]), the body weight entry is on record as “time-dependent loss” and the heart weight entry is given as “time-dependent loss”. Further, in the data set with C57BL6/J wild type mice (single bolus of Dox, 7-day timepoint), the peripheral blood monocytes result is recorded as “transient increase”. Also, the peripheral blood neutrophils result in the data set on C57BL6/J wild type mice (single bolus of Dox, at 7 days, sustained to 14 days) is “increase”. Further, in the data set with C57BL6/J wild type mice (single bolus of Dox, levels maintained to 14 days), the “neutrophil recruitment to the heart” value is listed as “reached a peak at 7 days”. The cardiac-resident macrophage number entry in the data set on C57BL6/J wild type mice (single bolus of Dox, nadir at 7 days) is “decreased”. Also, in the data set on C57BL6/J wild type mice (single bolus of Dox, peak at 7 days), the cardiac-resident monocyte number entry is reported as “increased”. For the same molecule, in data set [1] (setting [7]), the “capillary density in the myocardium” value is reported as “reduced capillary density” and the “fibrosis in the myocardium” value is recorded as “greater fibrosis”. In data set [1] (setting [8]), the “cardiac contractility (echocardiography)” value is given as “deterioration” and the “ventricular wall (echocardiography)” value is reported as “thinning”. In data set [1] (setting [9]), the “cardiac contractility (echocardiography)” value is “significant reduction” and the “ventricular wall (echocardiography)” value is listed as “wall thinning”. In data set [1] (mice with expanding Trp53^+/− clones vs wild-type cells, Dox cycles), the “functional impairment and wall thinning” value is reported as “significantly greater”. Further, in data set [2], the survival result was “reduced survival”. For the same molecule, in data set [3] (8 weeks after Dox, mutant Trp53 vs wild-type cells), the “heart transcripts of inflammatory mediators Il1b, Il6 and Tnf” value is reported as “significant increase”. Also, the “fractional shortening and posterior wall thickness of the heart” value in data set [3] (Trp53^+/− vs wild-type group, VAF 0.15, after Dox) is given as “significant reductions”. Also, in data set [3] (setting [10]), the “neutrophil recruitment to the heart” value is reported as “greater neutrophil recruitment” and the “numbers of Ly6C^hi monocytes or macrophages within cardiac tissue” value was “no effect”. Besides, in data set [4] (Dox vs saline control, at termination of the experiment), the “proportions of donor-derived Trp53^+/− cells in bone marrow LSK, LT-HSC and GMP fractions” value was “considerably higher”. Besides, in data set [4] (setting [11]), the “expansion of donor-derived Trp53^+/− cells in circulating cell populations” value is “further expansion” and the “expansion of transplanted wild-type cells in circulating cell populations” value is recorded as “little or no effect”. The “hemoglobin levels and absolute numbers of hematopoietic cell types” value in data set [4] (after the fourth cycle of Dox, prolonged administration) is recorded as “altered some of these parameters”. In data set [4] (serial Dox administration, adoptive BMT), the “expansion of donor-derived Trp53^R27OH clones in circulating leukocytes and bone marrow HSPC fractions” value was “selective expansion”. Further, the “myocardial transcripts that encode inflammatory mediators” value in data set [5] was “upregulation”.
